Data from patent US8952024B2, “Herbicidal pyrimidone derivatives” (E I du Pont de Nemours and Company, priority 2009, dated 2015).

Assays:
Type in all cases: in vivo
[1] = tested on: goosegrass (Eleusine indica); test: Test B pre-/postemergence plant response; conditions: Preemergence, 62 g ai/ha; scale 0 to 100, 0 no effect, 100 complete control
rice (Oryza sativa) = test: Test B flooded paddy test; conditions: for Plant response rating, Flood, Rice: 250 g ai/ha, flooded paddy test, visual rating on 0 to 100 scale (0 no effect, 100 complete control) after 13 to 15 days; for Plant response rating, Rice: Flood (flooded paddy test), 13 to 15 days
Procedure, shortened: (§1)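 Flooded-pot test: water raised to 3 cm above soil when treating, compound put in the water, level unchanged thereafter. Plants were at 2 leaves. Readout after 13 to 15 days, visual, relative to controls; 0 signifies no effect and 100 complete control.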

[2] = tested on: umbrella sedge (Cyperus difformis); test: Test B flooded paddy test; conditions: for Plant response rating, Flood, Sedge, Umbrella: 250 g ai/ha, flooded paddy test, visual rating on 0 to 100 scale (0 no effect, 100 complete control) after 13 to 15 days; for Plant response rating, Sedge, Umbrella: Flood (flooded paddy test), 13 to 15 days
Procedure, shortened: as §1

[3] = tested on: barnyardgrass (Echinochloa crus-galli); test: Test B flooded paddy test; conditions: for Plant response rating, Flood, Barnyardgrass: 250 g ai/ha, flooded paddy test, visual rating on 0 to 100 scale (0 no effect, 100 complete control) after 13 to 15 days; for Plant response rating, Barnyardgrass: Flood (flooded paddy test), 13 to 15 days
Procedure, shortened: as §1

[4] = tested on: ducksalad (Heteranthera limosa); test: Test B flooded paddy test; conditions: for Plant response rating, Flood, Ducksalad: 250 g ai/ha, flooded paddy test, visual rating on 0 to 100 scale (0 no effect, 100 complete control) after 13 to 15 days; for Plant response rating, Ducksalad: Flood (flooded paddy test), 13 to 15 days
Procedure, shortened: as §1

[5] = tested on: ragweed (common ragweed, Ambrosia elatior); test: Test B pre-/postemergence plant response
Procedure, shortened: (§2)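 Ratings reflect visual comparison with untreated controls 13 to 15 days after application, from 0 (no effect) to 100 (complete control). Application was preemergence to seeded loam/sand soil or postemergence to 1- to 4-leaf plants, with compound in a non-phytotoxic, surfactant-containing solvent.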

[6] = tested on: nightshade (eastern black nightshade, Solanum ptycanthum); test: Test B pre-/postemergence plant response; conditions: Preemergence; for Nightshade plant response rating: 125 g ai/ha
Procedure, shortened: as §2

[7] = tested on: Italian ryegrass (Lolium multiflorum); test: Test B pre-/postemergence plant response
Procedure, shortened: as §2

[8] = tested on: giant foxtail (Setaria faberii); test: Test B pre-/postemergence plant response
Procedure, shortened: as §2

[9] = tested on: galium (catchweed bedstraw, Galium aparine); test: Test B pre-/postemergence plant response; conditions: Preemergence; for Galium plant response rating: 125 g ai/ha
Procedure, shortened: as §2

[10] = tested on: sunflower (common oilseed sunflower, Helianthus annuus); test: Test B pre-/postemergence plant response; conditions: Preemergence; for Sunflower plant response rating: 125 g ai/ha
Procedure, shortened: as §2

[11] = tested on: chickweed (Stellaria media); test: Test B postemergence plant response; conditions: for Chickweed plant response rating: 250 g ai/ha, scale 0 to 100
Procedure, shortened: (§3)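 Plants grown in peat/vermiculite medium were sprayed postemergence at 2–18 cm height (1- to 4-leaf stage). After 13–15 days in the greenhouse, response was rated visually against untreated controls on a 0–100 scale (0 no effect, 100 complete control).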

[12] = tested on: windgrass (Apera spica-venti); test: Test B postemergence plant response
Procedure, shortened: as §3

[13] = tested on: canarygrass (Phalaris minor); test: Test B postemergence plant response; conditions: for Canarygrass plant response rating: 250 g ai/ha, scale 0 to 100
Procedure, shortened: as §3

[14] = tested on: winter barley (Hordeum vulgare); test: Test B postemergence plant response; conditions: for Barley plant response rating: 250 g ai/ha, scale 0 to 100
Procedure, shortened: as §3

[15] = 31 g ai/ha, scale of 0 to 100 where 0 is no effect and 100 is complete control
[16] = 62 g ai/ha, scale of 0 to 100 where 0 is no effect and 100 is complete control
[17] = 125 g ai/ha, scale 0 to 100, 0 is no effect, 100 is complete control
[18] = 31 g ai/ha, postemergence, scale 0 to 100, 0 is no effect, 100 is complete control
[19] = 250 g ai/ha, Preemergence, 0 to 100 scale
[20] = Postemergence, 62 g ai/ha, scale 0 (no effect) to 100 (complete control), 13 to 15 days
[21] = Postemergence, 125 g ai/ha, visual rating after 13 to 15 days, scale 0 (no effect) to 100 (complete control)
[22] = Preemergence, 31 g ai/ha, scale 0 to 100 (0 no effect, 100 complete control)
[23] = Preemergence, 125 g ai/ha, 0 to 100 scale
[24] = 31 g ai/ha, scale 0 to 100 (0 no effect, 100 complete control)
[25] = 62 g ai/ha, scale 0 to 100, 0 no effect, 100 complete control
[26] = Postemergence, 250 g ai/ha, scale 0 to 100
[27] = Preemergence, 62 g ai/ha, scale 0 to 100, 0 no effect, 100 complete control
[28] = 62 g ai/ha, scale 0 to 100, 0 is no effect, 100 is complete control
[29] = Postemergence, 31 g ai/ha, scale 0 to 100 (0 no effect, 100 complete control)

CCn1c(-c2ccccc2)ncc(C(=O)C2=C(O)CCCC2=O)c1=O [Compound 49]
Plant response rating, Goosegrass [1]: 95
Plant response rating, Flood, Rice (rice (Oryza sativa)): 15
Plant response rating, Rice (rice (Oryza sativa); [15]): 0
Plant response rating, Rice (rice (Oryza sativa); [16]): 0
Plant response rating, Rice (rice (Oryza sativa); [17]): 10
Plant response rating, Flood, Sedge, Umbrella [2]: 85
Plant response rating, Sedge, Umbrella [2, 15]: 0
Plant response rating, Sedge, Umbrella [2, 16]: 0
Plant response rating, Sedge, Umbrella [2, 17]: 0
Plant response rating, Flood, Barnyardgrass [3]: 0
Plant response rating, Barnyardgrass [3, 15]: 0
Plant response rating, Barnyardgrass [3, 16]: 0
Plant response rating, Barnyardgrass [3, 17]: 0
Plant response rating, Flood, Ducksalad [4]: 70
Plant response rating, Ducksalad [4, 15]: 0
Plant response rating, Ducksalad [4, 16]: 0
Plant response rating, Ducksalad [4, 17]: 40
Plant response rating, Ragweed [5, 18]: 75
Plant response rating, Ragweed [5, 19]: 95
Plant response rating, Ragweed [5, 20]: 80
Plant response rating, Ragweed [5, 21]: 80
Plant response rating, Ragweed [5, 22]: 70
Ragweed plant response rating [5, 23]: 80
Plant response rating, Nightshade ([6]; 250 g ai/ha, 0 to 100 scale): 98
Plant response rating, Nightshade [6, 24]: 98
Plant response rating, Nightshade [6, 25]: 98
Nightshade plant response rating ([6]; 0 to 100 scale): 98
Plant response rating, Ryegrass, Italian [7, 18]: 0
Plant response rating, Ryegrass, Italian [7, 19]: 5
Plant response rating, Ryegrass, Italian [7, 20]: 0
Plant response rating, Ryegrass, Italian [7, 21]: 0
Plant response rating, Ryegrass, Italian [7, 22]: 0
Ryegrass, Italian plant response rating [7, 23]: 0
Plant response rating, Foxtail, Giant [8, 18]: 45
Plant response rating, Foxtail, Giant [8, 19]: 45
Plant response rating, Foxtail, Giant [8, 20]: 60
Plant response rating, Foxtail, Giant [8, 21]: 70
Foxtail, Giant plant response rating [8, 26]: 75
Plant response rating, Foxtail, Giant [8, 22]: 0
Plant response rating, Foxtail, Giant [8, 27]: 0
Foxtail, Giant plant response rating [8, 23]: 20
Plant response rating, Galium ([9]; 250 g ai/ha, 0 to 100 scale): 95
Plant response rating, Galium [9, 24]: 0
Plant response rating, Galium [9, 25]: 80
Galium plant response rating ([9]; 0 to 100 scale): 90
Plant response rating, Sunflower ([10]; 250 g ai/ha, 0 to 100 scale): 75
Plant response rating, Sunflower [10, 24]: 60
Sunflower plant response rating ([10]; 0 to 100 scale): 75
Plant response rating, Chickweed [11, 18]: 75
Plant response rating, Chickweed [11, 20]: 75
Plant response rating, Chickweed [11, 21]: 80
Chickweed plant response rating ([11]; Postemergence): 90
Plant response rating, Windgrass [12, 18]: 0
Plant response rating, Windgrass [12, 20]: 0
Plant response rating, Windgrass [12, 21]: 5
Plant response rating, Canarygrass [13, 18]: 0
Plant response rating, Canarygrass [13, 20]: 0
Plant response rating, Canarygrass [13, 21]: 0
Canarygrass plant response rating ([13]; Postemergence): 0
Plant response rating, Barley [14, 18]: 0
Plant response rating, Barley [14, 20]: 0
Plant response rating, Barley [14, 21]: 0
Barley plant response rating ([14]; Postemergence): 0

5-[(2-hydroxy-6-oxo-1-cyclohexen-1-yl)carbonyl]-3-(2-methoxyethyl)-2-(3-thienyl)-4(3H)-pyrimidinone [Compound 97]
Plant response rating, Goosegrass [1]: 75
Plant response rating, Flood, Rice (rice (Oryza sativa)): 0
Plant response rating, Rice (rice (Oryza sativa); [15]): 0
Plant response rating, Rice (rice (Oryza sativa); [28]): 0
Plant response rating, Rice (rice (Oryza sativa); [17]): 0
Plant response rating, Flood, Sedge, Umbrella [2]: 55
Plant response rating, Sedge, Umbrella [2, 15]: 0
Plant response rating, Sedge, Umbrella [2, 28]: 40
Plant response rating, Sedge, Umbrella [2, 17]: 55
Plant response rating, Flood, Barnyardgrass [3]: 0
Plant response rating, Barnyardgrass [3, 15]: 0
Plant response rating, Barnyardgrass [3, 28]: 0
Plant response rating, Barnyardgrass [3, 17]: 0
Plant response rating, Flood, Ducksalad [4]: 80
Plant response rating, Ducksalad [4, 15]: 0
Plant response rating, Ducksalad [4, 28]: 20
Plant response rating, Ducksalad [4, 17]: 75
Plant response rating, Ragweed [5, 19]: 100
Plant response rating, Ragweed [5, 29]: 75
Plant response rating, Ragweed [5, 20]: 80
Plant response rating, Ragweed [5, 21]: 90
Ragweed plant response rating [5, 26]: 98
Plant response rating, Ragweed [5, 22]: 98
Plant response rating, Ragweed [5, 27]: 100
Ragweed plant response rating [5, 23]: 100
Plant response rating, Nightshade ([6]; 250 g ai/ha, 0 to 100 scale): 100
Plant response rating, Nightshade [6, 24]: 100
Plant response rating, Nightshade [6, 25]: 100
Nightshade plant response rating ([6]; 0 to 100 scale): 100
Plant response rating, Ryegrass, Italian [7, 19]: 0
Plant response rating, Ryegrass, Italian [7, 29]: 0
Plant response rating, Ryegrass, Italian [7, 20]: 0
Plant response rating, Ryegrass, Italian [7, 21]: 0
Ryegrass, Italian plant response rating [7, 26]: 20
Plant response rating, Ryegrass, Italian [7, 22]: 0
Plant response rating, Ryegrass, Italian [7, 27]: 0
Ryegrass, Italian plant response rating [7, 23]: 0
Plant response rating, Foxtail, Giant [8, 19]: 45
Plant response rating, Foxtail, Giant [8, 29]: 70
Plant response rating, Foxtail, Giant [8, 20]: 75
Plant response rating, Foxtail, Giant [8, 21]: 80
Foxtail, Giant plant response rating [8, 26]: 95
Plant response rating, Foxtail, Giant [8, 22]: 0
Plant response rating, Foxtail, Giant [8, 27]: 0
Foxtail, Giant plant response rating [8, 23]: 0
Plant response rating, Galium ([9]; 250 g ai/ha, 0 to 100 scale): 85
Plant response rating, Galium [9, 24]: 0
Plant response rating, Galium [9, 25]: 10
Galium plant response rating ([9]; 0 to 100 scale): 85
Plant response rating, Sunflower ([10]; 250 g ai/ha, 0 to 100 scale): 98
Plant response rating, Sunflower [10, 24]: 0
Plant response rating, Sunflower [10, 25]: 80
Sunflower plant response rating ([10]; 0 to 100 scale): 95
Plant response rating, Chickweed [11, 29]: 90
Plant response rating, Chickweed [11, 20]: 95
Plant response rating, Chickweed [11, 21]: 95
Chickweed plant response rating ([11]; Postemergence): 98
Plant response rating, Windgrass [12, 29]: 5
Plant response rating, Windgrass [12, 20]: 10
Plant response rating, Windgrass [12, 21]: 30
Windgrass plant response rating [12, 26]: 40
Plant response rating, Canarygrass [13, 29]: 0
Plant response rating, Canarygrass [13, 20]: 0
Plant response rating, Canarygrass [13, 21]: 5
Canarygrass plant response rating ([13]; Postemergence): 40
Plant response rating, Barley [14, 29]: 0
Plant response rating, Barley [14, 20]: 0
Plant response rating, Barley ([14]; Postemergence, 125 g ai/ha, scale 0 to 100 (0 no effect, 100 complete control), 13 to 15 days): 0
Barley plant response rating ([14]; Postemergence): 5
